For test [1], the target named is T1, C4552 DNA polymerase (Saccharolobus solfataricus, UniProt Q97W02, A155G/A42V/D156R/D292Y/D294N/E291S/E324K/E325K/E327K/E79L/G187P/G299W/I153V/I189F/I248T/I295S/K152A/K317Q/K321Q/K56Y/K78D/L293W/M76W/N188Y/P184Q/Q82W/Q83G/R300S/S297Y/S86E/T290K/T301W/V289W/V296Q).
T1 construct: made in house
Put plainly: Primer extension assay with three 100mer templates derived from the HIV1, 2 and 3 genomes. Type of test: biochemical, Sulfolobus solfataricus. As to conditions: 0.5 Mm PEM; HIV1, HIV2, HIV3 100mer templates; 30 minutes at 23° C.; FIG. 9. As for the experimental part:
PEM activity of compounds 9-11 was tested in primer extension assays using three 100mer templates, derived from the HIV1, 2, and 3 genomes. Primer extension reactions included the following reagents: 75 Mm TrisCl, Ph 8.44, 175 Mm NH4Oac, 20% PEG8K, 5% NMS, 0.8 nmol PP-60.20, 0.6 Mm MnCl2, 2.3 μg Tth single-strand binding protein (SSB), 0.5 M or 1 M urea, 200 pmol each XNTP, 1.1 pmol template, 1 pmol oligonucleotide primer, 1.2 μg purified recombinant C4552 DNA polymerase, and 0.5 Mm PEM. 10 μL primer extension reactions were run for 30 minutes at 23° C. and reaction products were analyzed by gel electrophoresis.

Test [2] has as its system DNA polymerase. Put plainly: Sequencing by Expansion (SBX) of primer extension products, nanopore reads aligned to template. Format: biochemical. An excerpt:
To investigate the accuracy of PEM-dependent enhancement of XNTP polymerization, primer extension products were sequenced using the SBX protocol. Briefly, the constrained Xpandomer products of XNTP polymerization are cleaved to generate linearized Xpandomers. This is accomplished by first quenching the extension reaction with a solution containing 100 Mm EDTA, 2 Mm THPTA, and 2% Tween-20. Then the sample is subjected to amine modification with a solution of 1 M NaHCO3 and 1 M succinic anhydride in DMF. Cleavage of the phosphoramidate bonds is carried out with 37% HCl and linearized Xpandomers are purified with QIAquick columns (QIAGEN, Inc.).
For sequencing, protein nanopores are prepared by inserting a-hemolysin into a DphPE/hexadecane bilayer member in buffer B1, containing 2 M NH4Cl and 100 Mm HEPES, Ph 7.4. The cis well is perfused with buffer B2, containing 0.4 M NH4Cl, 0.6 M GuCl, and 100 Mm HEPES, Ph 7.4. The Xpandomer sample is heated to 70° C. for 2 minutes, cooled completely, then a 2 μL sample is added to the cis well. A voltage pulse of 90 Mv/390 Mv/10 μs is then applied and data is acquired via Labview acquisition software.
Sequence data is analyzed by histogram display of the population of sequence reads from a single SBX reaction. […]

Test [3] relates to DNA polymerase. Put plainly: Screen of PEMs for enhancement of XNTP polymerization (primer extension reaction, gel electrophoresis). As to conditions: FIG. 4 gel; no PEM additive: up to only around 14 XNTPs. Type of test: biochemical. An excerpt:
The Sequencing by Expansion (SBX) methodology developed by the inventors provides significant performance enhancements in sequence read efficiency and accuracy of Xpandomers relative to native DNA. However, initial transcription of the sequence of the natural DNA template onto the measurable Xpandomer relies on the ability of DNA polymerase to utilize XNTPs as substrates (the generalized structure of an XNTP is discussed herein with reference to FIG. 1A and FIG. 2). […] In an effort to improve the efficiency and accuracy of XNTP polymerization into Xpandomers, several PEMs were screened for the ability to enhance DNA polymerase primer extension reactions using XNTPs as substrates.
A representative primer extension reaction may include the following reagents: 2 pmol primer, 2.2 pmol 45mer oligonucleotide template, 50 pmol of each XNTP (XATP, XCTP, XGTP, and XTTP), 50 Mm Tris HCl, Ph 6.79, 200 Mm NaCl, 20% PEG, 5% NMS, 0.5 nmol polyphosphate 60.19, 0.3 Mm MnCl2, and 0.6 μg of purified recombinant DNA polymerase protein. Reactions may be run for 1 hr at 23° C. Reaction products (i.e., constrained Xpandomers) are treated to cleave the phosphoramidate bonds, thereby generating linearized Xpandomers. Reaction products may be analyzed using gel electrophoresis on 4-12% acrylamide gels to resolve and visualize Xpandomer products of different lengths. For the PEM screen described above, PEMs were typically tested in the micro to millimolar range.
Again, this PEM activity is specific for compound 2, as other unrelated aromatic compounds had no effect (lanes 2-7).

In test [4] the target is T2, C4552 (variant of DPO4 DNA polymerase, SEQ ID NO:1) (Saccharolobus solfataricus, UniProt Q97W02, A155G/A42V/D156R/D292Y/D294N/E291S/E324K/E325K/E327K/E79L/G187P/G299W/I153V/I189F/I248T/I295S/K152A/K317Q/K321Q/K56Y/K78D/L293W/M76W/N188Y/P184Q/Q82W/Q83G/R300S/S297Y/S86E/T290K/T301W/V289W/V296Q).
T2 construct: made in house
Put plainly: XNTP polymerization on longer templates (88, 127, 227, 277 nucleotides). Type of test: biochemical, Sulfolobus solfataricus. As to conditions: 1 Mm compound; templates of 88, 127, 227, 277 nucleotides; 1-2 hr at 23° C.; FIG. 8. The protocol:
Following the success of accurately replicating templates of up to 80 nucleotides in length into Xpandomers, XNTP polymerization reactions were conducted using four longer templates, consisting of 88, 127, 227, and 277 nucleotides in length. A variant of DPO4 DNA polymerase, referred to as C4552 (SEQ ID NO:1), was used in these polymerization reactions and reaction conditions were optimized for C4552 activity in the presence of PEM compound 1. Other suitable DPO4 polymerase variants include, but are not limited to, those of SEQ ID NO:s 2-5. In addition to 1 Mm compound 1, reaction additives included […] and 2.75 μg single-strand binding protein (Eco SSB). Extension reactions were carried out with 0.85 pmol template, 0.5 pmol oligonucleotide primer, and 1 nmol each XNTP in a final volume of 10 μL. Reactions were run in buffer composed of 50 Mm TrisCl, Ph 8.84, 200 Mm NH4Oac, and 20% PEG8K supplemented with 5% NMS, polyphosphate PP-60.20 in amounts of 3 or 4 nmol, and 2 Mm MnCl2. 1.2 μg purified recombinant DNA polymerase protein was used in each extension reaction and reactions were run for 1-2 hr at 23° C. […] Lanes 1-5 and 6-10 represent identical extension reactions with the exception of the amount of PP-60.20 additive, which was 3 nmol in lanes 1-5 and 4 nmol in lanes 6-10.

Test [5] addresses T3, C4760 DNA polymerase (a variant of DPO4, SEQ ID NO:2) (Saccharolobus solfataricus, UniProt Q97W02, A155G/A42V/D156R/D292Y/D294N/E291S/E324K/E325K/E327K/E63R/E79L/G187P/G299W/I153V/I189F/I248T/I295S/K152A/K317Q/K321Q/K56Y/K78D/L293W/M76W/N188Y/P184Q/Q82W/Q83G/R300S/S297Y/S86E/T290K/T301W/V289W/V296Q).
T3 construct: made in house
Put plainly: Primer extension assay with a 411mer amplicon template. Format: biochemical, Sulfolobus solfataricus. The protocol:
PEM activity of compound 15 was tested in primer extension assays using a 411mer amplicon template. Primer extension reactions included the following reagents: 50 Mm TrisCl, 200 Mm NH4Oac, 20% PEG8K, 5% NMS, 3 nmol PP-60.20, 2 Mm MnCl2, 2 μg Kod single-strand binding protein (SSB), 1 M urea, 250 pmol each XNTP, 1 pmol template, 1 pmol oligonucleotide primer, 1.2 μg purified recombinant C4760 DNA polymerase (a variant of DPO4, see SEQ ID NO:2), and 2 (lane 2) or 3 (lane 3) Mm PEM. 10 μL primer extension reactions were run for 20 minutes at 37° C. and reaction products were analyzed by gel electrophoresis. A representative gel showing primer extension products is presented in FIG. 12 (the position of a 277mer is indicated by the arrow). […] Remarkably, the polymerase is completely dependent upon the addition of PEM to the reaction in order to be capable of synthesizing these lengthy Xpandomer products. Even longer extension products may be obtained by optimizing various reaction parameters, e.g., extension time and/or concentrations of various additives.
PEM activity of compound 19, was tested in primer extension assays using the 411mer amplicon template. […] 10 μL primer extension reactions were run for 30 minutes at 37° C. and reaction products were analyzed by gel electrophoresis. […]

Each structure is given as a SMILES string.

T3 sequence (Q97W02 other isoform, or with tags, fused parts or gaps with the stated changes): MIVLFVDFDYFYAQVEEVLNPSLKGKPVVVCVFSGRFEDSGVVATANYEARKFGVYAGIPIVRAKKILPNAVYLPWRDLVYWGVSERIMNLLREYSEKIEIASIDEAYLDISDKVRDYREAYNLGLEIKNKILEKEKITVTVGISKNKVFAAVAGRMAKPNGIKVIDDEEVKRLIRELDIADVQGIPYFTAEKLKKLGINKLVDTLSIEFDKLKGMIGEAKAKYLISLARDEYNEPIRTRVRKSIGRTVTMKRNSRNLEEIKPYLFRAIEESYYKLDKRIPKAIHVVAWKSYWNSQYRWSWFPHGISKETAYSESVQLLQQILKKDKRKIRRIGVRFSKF
T2 sequence (Q97W02 other isoform, or with tags, fused parts or gaps with the stated changes): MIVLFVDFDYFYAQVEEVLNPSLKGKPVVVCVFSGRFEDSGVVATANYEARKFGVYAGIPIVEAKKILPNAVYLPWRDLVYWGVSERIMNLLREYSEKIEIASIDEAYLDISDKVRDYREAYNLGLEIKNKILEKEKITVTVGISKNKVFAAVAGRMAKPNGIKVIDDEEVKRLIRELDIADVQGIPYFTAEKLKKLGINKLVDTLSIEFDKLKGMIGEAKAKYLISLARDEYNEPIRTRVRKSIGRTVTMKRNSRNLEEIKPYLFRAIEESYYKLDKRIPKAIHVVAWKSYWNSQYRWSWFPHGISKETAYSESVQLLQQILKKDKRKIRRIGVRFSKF

As for `O=C(O)c1ccc(-n2cc(-c3cccc(-c4cn(-c5ccc(C(=O)O)c(O)c5)nn4)n3)nn2)cc1O` [Compound 1, 4,4′-(pyridine-2,6-diylbis(1H-1,2,3-triazole-4,1-diyl))bis(2-hydroxybenzoic acid)], in test [1], the “polymerization of XNTPs into full length Xpandomer copies (PEM activity)” value is “enables polymerization of XNTPs into full length Xpandomer copies of the three different 100mer templates”. The “accuracy of SBX sequence reads” value in test [2] (45mer template, FIG. 6B, without additive reads not accurate past around base 18) is “increased the accuracy of the sequence reads across the entire length of the 45mer template”; in test [2] (60mer and 80mer templates, FIGS. 7A and 7B) it was “enabled accurate sequence reads completely to the end of each of these longer templates”. The “DNA polymerase-mediated primer extension with XNTPs (length of extension products)” value in test [3] is given as “considerably longer extension products”. Also, the “polymerization of XNTPs into Xpandomer copies of long templates” value in test [4] was “complete Xpandomer copies of each longer template”.

In the case of `NC(=O)c1cc(-c2cn(-c3ccc(C(=O)O)c(O)c3)nn2)nc(-c2cn(-c3ccc(C(=O)O)c(O)c3)nn2)c1` [Compound 19, 4,4′-((4-carbamoylpyridine-2,6-diyl)bis(1H-1,2,3-triazole-4,1-diyl))bis(2-hydroxybenzoic acid)], the “polymerization of XNTPs into lengthy Xpandomer copies (PEM activity)” value in test [5] (0.5, 1, or 1.5 Mm PEM, 30 minutes at 37° C., FIG. 14) was “enables polymerization of XNTPs into lengthy Xpandomer copies of the 411mer template, albeit in a manner less efficient than that of compound 14”.

On to `CCOC(=O)c1cc(-c2cn(-c3ccc(O)c(C(=O)O)c3)nn2)nc(-c2cn(-c3ccc(O)c(C(=O)O)c3)nn2)c1` [Compound 15, 5,5′-((4-(ethoxycarbonyl)pyridine-2,6-diyl)bis(1H-1,2,3-triazole-4,1-diyl))bis(2-hydroxybenzoic acid)], for which, in test [5] (2 or 3 Mm PEM, 20 minutes at 37° C., FIG. 12), the “polymerization of XNTPs into lengthy Xpandomer copies (PEM activity)” value is reported as “enables polymerization of XNTPs into lengthy Xpandomer copies of the 411mer template in a manner comparable to that of compound 14”.

The values above are taken from patent US12698523B2, “Enhancement of nucleic acid polymerization by aromatic compounds” (priority 2019, dated 2026).
